Reference: ChEMBL document CHEMBL4038298, “Ester- and amide-containing multiQACs: Exploring multicationic soft antimicrobial agents” (Bioorg Med Chem Lett, 2017)

Columns and labels:
Enterococcus faecalis = assay: Antibacterial activity against Enterococcus faecalis OG1RF incubated for 72 hrs; assay type: functional
Staphylococcus aureus [1] = assay: Antibacterial activity against community acquired methicillin-resistant Staphylococcus aureus USA300-0114 incubated for 72 hrs; assay type: functional; settings: USA300-0114, 72 h
Staphylococcus aureus [2] = assay: Antibacterial activity against hospital-acquired methicillin-resistant Staphylococcus aureus ATCC 33592 incubated for 72 hrs; assay type: functional; settings: ATCC 33592, 72 h
[3] = Stability of the compound in pure water by LCMS method; assay type: physicochemical
Pseudomonas aeruginosa = assay: Antibacterial activity against Pseudomonas aeruginosa PAO1 incubated for 72 hrs; assay type: functional; settings: PAO1, 72 h
Staphylococcus aureus [4] = assay: Antibacterial activity against methicillin-susceptible Staphylococcus aureus SH1000 incubated for 72 hrs; assay type: functional; settings: SH1000, 72 h
Escherichia coli = assay: Antibacterial activity against Escherichia coli MC4100 incubated for 72 hrs; assay type: functional; settings: str. K-12 substr. MC4100, 72 h

Structure (SMILES): CCCCCCCCCOC(=O)C[N+](C)(C)CC[N+](C)(C)CC(=O)OCCCCCCCCC.[Br-].[Br-]
- MIC (Enterococcus faecalis): 16 µM
- MIC (Staphylococcus aureus [1]): 4 µM
- MIC (Staphylococcus aureus [2]): 8 µM
- Stability [3]: Stable
- MIC (Pseudomonas aeruginosa): 32 µM
- MIC (Staphylococcus aureus [4]): 2 µM
- MIC (Escherichia coli): 16 µM

Structure (SMILES): CCCCCCCOC(=O)C[N+](C)(C)Cc1ccccc1.[Br-]
- MIC (Enterococcus faecalis): > 250 µM
- MIC (Staphylococcus aureus [1]): > 250 µM
- MIC (Staphylococcus aureus [2]): > 250 µM
- Stability [3]: Stable
- MIC (Pseudomonas aeruginosa): > 250 µM
- MIC (Staphylococcus aureus [4]): > 250 µM
- MIC (Escherichia coli): > 250 µM

Structure (SMILES): CCCCCCCCCCCCOC(=O)C[N+](C)(C)CCN1CC[N+](C)(CC(=O)OCCCCCCCCCCCC)CC1.[Br-].[Br-]
- MIC (Enterococcus faecalis): 32 µM
- MIC (Staphylococcus aureus [1]): 8 µM
- MIC (Staphylococcus aureus [2]): 8 µM
- Stability [3]: Stable
- MIC (Pseudomonas aeruginosa): 32 µM
- MIC (Staphylococcus aureus [4]): 8 µM
- MIC (Escherichia coli): 16 µM

Structure (SMILES): CCCCCCCCCCNC(=O)C[N+](C)(C)CCC[N+](C)(CCC[N+](C)(C)CC(=O)NCCCCCCCCCC)CC(=O)NCCCCCCCCCC.[Br-].[Br-].[Br-]
- MIC (Enterococcus faecalis): 2 µM
- MIC (Staphylococcus aureus [1]): 1 µM
- MIC (Staphylococcus aureus [2]): 2 µM
- Stability [3]: Stable
- MIC (Pseudomonas aeruginosa): 63 µM
- MIC (Staphylococcus aureus [4]): 1 µM
- MIC (Escherichia coli): 2 µM

Structure (SMILES): CCCCCCCCCOC(=O)C[N+](C)(C)CCN1CC[N+](C)(CC(=O)OCCCCCCCCC)CC1.[Br-].[Br-]
- MIC (Enterococcus faecalis): 8 µM
- MIC (Staphylococcus aureus [1]): 4 µM
- MIC (Staphylococcus aureus [2]): 4 µM
- Stability [3]: Stable
- MIC (Pseudomonas aeruginosa): 125 µM
- MIC (Staphylococcus aureus [4]): 4 µM
- MIC (Escherichia coli): 16 µM

Structure (SMILES): CCCCCCCCCOC(=O)C[N+](C)(C)CCC[N+](C)(CCC[N+](C)(C)CC(=O)OCCCCCCCCC)CC(=O)OCCCCCCCCC.[Br-].[Br-].[Br-]
- MIC (Enterococcus faecalis): 16 µM
- MIC (Staphylococcus aureus [1]): 8 µM
- MIC (Staphylococcus aureus [2]): 8 µM
- Stability [3]: Stable
- MIC (Pseudomonas aeruginosa): 32 µM
- MIC (Staphylococcus aureus [4]): 4 µM
- MIC (Escherichia coli): 8 µM

Structure (SMILES): CCCCCCCCCCCCCCOC(=O)C[N+](C)(C)Cc1ccccc1.[Br-]
- MIC (Enterococcus faecalis): 4 µM
- MIC (Staphylococcus aureus [1]): 2 µM
- MIC (Staphylococcus aureus [2]): 1 µM
- Stability [3]: Stable
- MIC (Pseudomonas aeruginosa): 250 µM
- MIC (Staphylococcus aureus [4]): 1 µM
- MIC (Escherichia coli): 8 µM

Structure (SMILES): CCCCCCCCCCNC(=O)C[N+](C)(C)Cc1ccccc1.[Br-]
- MIC (Enterococcus faecalis): 16 µM
- MIC (Staphylococcus aureus [1]): 8 µM
- MIC (Staphylococcus aureus [2]): 8 µM
- Stability [3]: Stable
- MIC (Pseudomonas aeruginosa): 125 µM
- MIC (Staphylococcus aureus [4]): 8 µM
- MIC (Escherichia coli): 32 µM

Structure (SMILES): CCCCCCOC(=O)C[N+](C)(C)Cc1ccccc1.[Br-]
- MIC (Enterococcus faecalis): > 250 µM
- MIC (Staphylococcus aureus [1]): > 250 µM
- MIC (Staphylococcus aureus [2]): > 250 µM
- Stability [3]: Stable
- MIC (Pseudomonas aeruginosa): > 250 µM
- MIC (Staphylococcus aureus [4]): > 250 µM
- MIC (Escherichia coli): > 250 µM

Structure (SMILES): CCCCCCOC(=O)C[N+](C)(C)CCN1CC[N+](C)(CC(=O)OCCCCCC)CC1.[Br-].[Br-]
- MIC (Enterococcus faecalis): > 250 µM
- MIC (Staphylococcus aureus [1]): > 250 µM
- MIC (Staphylococcus aureus [2]): > 250 µM
- Stability [3]: Stable
- MIC (Pseudomonas aeruginosa): > 250 µM
- MIC (Staphylococcus aureus [4]): > 250 µM
- MIC (Escherichia coli): > 250 µM

Structure (SMILES): CCCCCCCCOC(=O)C[N+](C)(C)Cc1ccccc1.[Br-]
- MIC (Enterococcus faecalis): 250 µM
- MIC (Staphylococcus aureus [1]): 250 µM
- MIC (Staphylococcus aureus [2]): 125 µM
- Stability [3]: Stable
- MIC (Pseudomonas aeruginosa): > 250 µM
- MIC (Staphylococcus aureus [4]): 125 µM
- MIC (Escherichia coli): 250 µM

Structure (SMILES): CCCCCCCCOC(=O)C[N+](C)(C)CC[N+](C)(C)CC(=O)OCCCCCCCC.[Br-].[Br-]
- MIC (Enterococcus faecalis): 63 µM
- MIC (Staphylococcus aureus [1]): 16 µM
- MIC (Staphylococcus aureus [2]): 32 µM
- Stability [3]: Stable
- MIC (Pseudomonas aeruginosa): 125 µM
- MIC (Staphylococcus aureus [4]): 32 µM
- MIC (Escherichia coli): 63 µM

Structure (SMILES): CCCCCCCCOC(=O)C[N+](C)(C)CCCN(CCC[N+](C)(C)CC(=O)OCCCCCCCC)CCC[N+](C)(C)CC(=O)OCCCCCCCC.[Br-].[Br-].[Br-]
- MIC (Enterococcus faecalis): 8 µM
- MIC (Staphylococcus aureus [1]): 4 µM
- MIC (Staphylococcus aureus [2]): 4 µM
- Stability [3]: Stable
- MIC (Pseudomonas aeruginosa): 63 µM
- MIC (Staphylococcus aureus [4]): 2 µM
- MIC (Escherichia coli): 8 µM

Structure (SMILES): CCCCCCCCCCCCOC(=O)C[N+](C)(C)CC[N+](C)(C)CC(=O)OCCCCCCCCCCCC.[Br-].[Br-]
- MIC (Enterococcus faecalis): 32 µM
- MIC (Staphylococcus aureus [1]): 16 µM
- MIC (Staphylococcus aureus [2]): 32 µM
- Stability [3]: Stable
- MIC (Pseudomonas aeruginosa): 125 µM
- MIC (Staphylococcus aureus [4]): 16 µM
- MIC (Escherichia coli): 63 µM

Structure (SMILES): CCCCCCCCCCCCOC(=O)C[N+](C)(C)Cc1ccccc1.[Br-]
- MIC (Enterococcus faecalis): 4 µM
- MIC (Staphylococcus aureus [1]): 2 µM
- MIC (Staphylococcus aureus [2]): 2 µM
- Stability [3]: Stable
- MIC (Pseudomonas aeruginosa): 63 µM
- MIC (Staphylococcus aureus [4]): 2 µM
- MIC (Escherichia coli): 16 µM

Structure (SMILES): CCCCCCCOC(=O)C[N+](C)(C)CCCN(CCC[N+](C)(C)CC(=O)OCCCCCCC)CCC[N+](C)(C)CC(=O)OCCCCCCC.[Br-].[Br-].[Br-]
- MIC (Enterococcus faecalis): 32 µM
- MIC (Staphylococcus aureus [1]): 8 µM
- MIC (Staphylococcus aureus [2]): 32 µM
- Stability [3]: Stable
- MIC (Pseudomonas aeruginosa): > 250 µM
- MIC (Staphylococcus aureus [4]): 16 µM
- MIC (Escherichia coli): 63 µM

Structure (SMILES): CCCCCCCCCCOC(=O)C[N+](C)(C)CCC[N+](C)(CCC[N+](C)(C)CC(=O)OCCCCCCCCCC)CC(=O)OCCCCCCCCCC.[Br-].[Br-].[Br-]
- MIC (Enterococcus faecalis): 8 µM
- MIC (Staphylococcus aureus [1]): 4 µM
- MIC (Staphylococcus aureus [2]): 4 µM
- Stability [3]: Stable
- MIC (Pseudomonas aeruginosa): 16 µM
- MIC (Staphylococcus aureus [4]): 4 µM
- MIC (Escherichia coli): 8 µM
